Experimental data: ChEMBL document CHEMBL4823244, “Synthesis of norisoboldine derivatives and bioactivity assay for inducing the generation of regulatory T cells” (Bioorg Med Chem Lett, 2021)
The source made the active and inactive calls. The calls are words filed in the database; no cut-off is given here.

Tests used:
Mus musculus [1] = experiment: Antiinflammatory activity in DSS-induced ulcerative colitis mouse model assessed as reduction in DAI score at 200 mg/kg, po administered for 10 consecutive days; format: functional, organism-based; conditions: time 10.0 day
Mus musculus [2] = experiment: Antiinflammatory activity in DSS-induced ulcerative colitis mouse model assessed as rescue of colon length shortening at 200 mg/kg, po administered for 10 consecutive days; format: functional, organism-based; conditions: time 10.0 day
Mus musculus [3] = experiment: Antiinflammatory activity in DSS-induced ulcerative colitis mouse model assessed as reduction in MPO activity at 200 mg/kg, po administered for 10 consecutive days; format: functional, organism-based; conditions: time 10.0 day
Mus musculus [4] = experiment: Antiinflammatory activity in DSS-induced ulcerative colitis mouse model assessed as protection against colon destruction at 200 mg/kg, po administered for 10 consecutive days by HE staining based histopathological analysis; format: functional, organism-based; conditions: time 10.0 day
Mus musculus [5] = experiment: Antiinflammatory activity in DSS-induced ulcerative colitis mouse model assessed as protection against inflammation of colons at 200 mg/kg, po administered for 10 consecutive days by HE staining based histopathological analysis; format: functional, organism-based; conditions: time 10.0 day
Mus musculus [6] = experiment: Induction of Treg cell differentiation in DSS- induced ulcerative colitis mouse model assessed as number of Treg cells in colonic lamina proprias at 200 mg/kg, po administered for 10 consecutive days by flow cytometry analysis (Rvb= 7.97%); format: functional; conditions: time 10 day
Mus musculus [7] = experiment: Induction of Treg cell differentiation in DSS- induced ulcerative colitis mouse model assessed as number of Treg cells in mesenteric lymph nodes at 200 mg/kg, po administered for 10 consecutive days by flow cytometry analysis (Rvb= 7.52%); format: functional; conditions: time 10 day
Mus musculus [8] = experiment: Induction of Treg cell differentiation in DSS- induced ulcerative colitis mouse model assessed as number of Treg cells in spleens at 200 mg/kg, po administered for 10 consecutive days by flow cytometry analysis (Rvb= 6.49%); format: functional; conditions: time 10 day

Q: What does the source list for `Nc1ccc(O)c(C(=O)O)c1` [MESALAMINE]?
A: Activity (Mus musculus [1]): Active; Activity (Mus musculus [2]): Active; Activity (Mus musculus [3]): Active; Activity (Mus musculus [4]): Active; Activity (Mus musculus [5]): Active; Activity (Mus musculus [6]): 9.59%; Activity (Mus musculus [7]): 7.7%; Activity (Mus musculus [8]): 5.9%
